Measurements taken from EP0509180A1, “Use of GABA-T inhibitors for the treatment of schizophrenia and phencyclidine intoxication” (MERRELL DOW PHARMACEUTICALS INC., priority 1991, dated 1992).

Tests used:
male CDl albino mice [1] = test: Spontaneous locomotor activity of mice (actimeter, Event-Counter); format: in vivo
Experimental: (§1) In determining efficacy for the above-stated uses of gamma-aminobutyric acid transaminase inhibitors standard laboratory models are employed wherein effects on phencyclidine-induced locomotor activity are determined. One such test employed is: male CDl albino mice (weighing 30-40 grams) (Charles River, St. Aubin-les-Elbeuf, France) kept under standardized conditions (22°C, 60% relative humidity; 12 hours light - 12 hours dark cycle; water and standard diet ad libitum). Locomotor activity is determined using the Event-Counter of Columbus Instr. Corp. (Columbus, Ohio). The animals (six per cage) are brought into a room which is equipped with an actimeter, and allowed to adapt to the new environment for several hours. Phencyclidine is given 5 hours after administration of the GABA-T inhibitors. The dose of phencyclidine used is 5 µg/g in 10 µl of physiological saline, i.p. Immediately after phencyclidine administration (or of the same volume of physiological saline in the case of controls), the animals are placed individually into standard plastic cages (23 cm × 17 cm), and the actimeter is set into action. Total time of observation: 35 minutes. The scores of 5 minute intervals are integrated and stored by the computer.
(§2) In order to test "direct" effects of the drugs, locomotor activity was determined, starting 10 minutes after intraperitoneal administration of 150 mg/kg (4S)-allenylGABA, and 400 mg/kg vigabatrin, respectively.
(§3) The locomotor behavior of mice with elevated brain GABA concentrations was tested as follows: vigabatrin and (4S)-allenylGABA were administered intraperitoneally in a dose-range from 100-800 mg/kg and 50-300 mg/kg, respectively. Within this dose range whole brain GABA concentrations, as observed 5 hours post injection were between 2.5 and 10 µmol/g.

whole brain GABA = test: Whole brain GABA concentrations after GABA-T inhibitor administration; format: in vivo, mice; conditions: 15 minutes after administration of optimum doses
male CDl albino mice [2] = test: Phencyclidine (PCP)-induced locomotor activity of mice (actimeter, Event-Counter); format: in vivo; conditions: for direct effect on phencyclidine-induced locomotor behavior (in words): 10 minutes (15 minutes) after i.p. 150 mg/kg (4S)-allenylGABA or 400 mg/kg vigabatrin (Table I)
Experimental: as §1, §2, §3

Compound: C=C=C[C@@H](N)CCC(=O)O [(4S)-allenylGABA, (S)-4-amino-5,6-heptadienoic acid]
- Spontaneous locomotor activity, Mean scores ± S.D. (male CDl albino mice [1]; 50 mg/kg i.p., 5 h pretreatment): 306.244 ( 6)
- Spontaneous locomotor activity, Mean scores ± S.D. (male CDl albino mice [1]; 100 mg/kg i.p., 5 h pretreatment): 406.221 ( 6)
- Spontaneous locomotor activity, Mean scores ± S.D. (male CDl albino mice [1]; 150 mg/kg i.p., 5 h pretreatment): 315.304 ( 6)
- Spontaneous locomotor activity, Mean scores ± S.D. (male CDl albino mice [1]; 150 mg/kg i.p., given 10 minutes before physiol. saline): 688 ± 308 ( 6)
- Spontaneous locomotor activity, Mean scores ± S.D. (male CDl albino mice [1]; 300 mg/kg i.p., 5 h pretreatment): 445.420 ( 6)
- sedation / motor activity at very high dose (male CDl albino mice [1]; 600 mg/kg (not shown)): sedated
- effect on spontaneous locomotor activity (in words) (male CDl albino mice [1]; dose range from 50 to 300 mg/kg, 5 h pretreatment (Table III)): did not affect
- brain GABA concentrations (whole brain GABA): below 3 µmol/g
- PCP-induced locomotor activity, Mean scores ± S.D. (male CDl albino mice [2]; 150 mg/kg i.p., given 10 minutes before phencyclidine (5 mg/kg)): 2680 ± 1040 (11)
- direct effect on phencyclidine-induced locomotor behavior (in words) (male CDl albino mice [2]): absence of an effect
- minimal effective dose (male CDl albino mice [2]; Mus musculus, 5 h, read-out: dose giving a statistically significant difference to mice receiving only phencyclidine): ≥ 100 mg/kg
- phencyclidine-induced hypermotility reduced by (male CDl albino mice [2]; highest dose given (300 mg/kg) i.p. 5 h before phencyclidine): 75%

Compound: C=C[C@H](N)CCC(=O)O [Vigabatrin, (R)S-4-aminohex-5-enoic acid]
- Spontaneous locomotor activity, Mean scores ± S.D. (male CDl albino mice [1]; 200 mg/kg i.p., 5 h pretreatment): 505 ± 344 (6)
- Spontaneous locomotor activity, Mean scores ± S.D. (male CDl albino mice [1]; 400 mg/kg i.p., 5 h pretreatment): 471 ± 306 (12)
- Spontaneous locomotor activity, Mean scores ± S.D. (male CDl albino mice [1]; 400 mg/kg i.p., given 10 minutes before physiol. saline, 35 minutes observation): 528 ± 239 ( 6)
- Spontaneous locomotor activity, Mean scores ± S.D. (male CDl albino mice [1]; 600 mg/kg i.p., 5 h pretreatment): 361 ± 139 (6)
- Spontaneous locomotor activity, Mean scores ± S.D. (male CDl albino mice [1]; 700 mg/kg i.p., 5 h pretreatment): 441 ± 298 (6)
- Spontaneous locomotor activity, Mean scores ± S.D. (male CDl albino mice [1]; 800 mg/kg i.p., 5 h pretreatment): 435 ± 275 (6)
- effect on spontaneous locomotor activity (in words) (male CDl albino mice [1]; 100-800 mg/kg i.p., 5 h pretreatment (Table II)): not significantly affected
- brain GABA concentrations (whole brain GABA): below 3 µmol/g
- PCP-induced locomotor activity, Mean scores ± S.D. (male CDl albino mice [2]; 100 mg/kg i.p. 5 h before phencyclidine (5 mg/kg)): 2360 ± 1100 (12)
- PCP-induced locomotor activity, Mean scores ± S.D. (male CDl albino mice [2]; 200 mg/kg i.p. 5 h before phencyclidine (5 mg/kg)): 1970 ± 730 (12)
- locomotor activity, lowest value, as % of that of phencyclidine-treated controls (male CDl albino mice [2]; 400 mg/kg i.p. 5 h before phencyclidine): 55%
- PCP-induced locomotor activity, Mean scores ± S.D. (male CDl albino mice [2]; 400 mg/kg i.p. 5 h before phencyclidine (5 mg/kg)): 1690 ± 1385 (12)
- PCP-induced locomotor activity, Mean scores ± S.D. (male CDl albino mice [2]; 400 mg/kg i.p., given 10 minutes before phencyclidine (5 mg/kg)): 2460 ± 1220 (11)
- PCP-induced locomotor activity, Mean scores ± S.D. (male CDl albino mice [2]; 600 mg/kg i.p. 5 h before phencyclidine (5 mg/kg)): 2180 ± 410 (12)
- PCP-induced locomotor activity, Mean scores ± S.D. (male CDl albino mice [2]; 700 mg/kg i.p. 5 h before phencyclidine (5 mg/kg)): 1780 ± 1080 (12)
- PCP-induced locomotor activity, Mean scores ± S.D. (male CDl albino mice [2]; 800 mg/kg i.p. 5 h before phencyclidine (5 mg/kg)): 2100 ± 1780 (12)
- direct effect on phencyclidine-induced locomotor behavior (in words) (male CDl albino mice [2]): absence of an effect
